Reference: patent US8921351B2, “Liquid crystalline phytosterol-glycerine complex for enhanced bioavailability and water dispersal” (Brandeis University, priority 2012, dated 2014)
Values belong to the compound of their own block, whether it stands above or below them.

Legend:
[1] = Saturation uptake of glycerine into melted non-esterified phytosterols; format: physicochemical
Method: An experiment was conducted to determine the “saturation uptake” level during the chemical interaction between phytosterols and glycerine, The saturation uptake level can be either an adsorption phenomenon or a solubility phenomenon. First, the saturation level of glycerine uptake into non-esterified phytosterols was determined Mixed phytosterols that had been purified from soybean oil, and containing principally beta-sitosterol, campesterol and stigmasterol (CoroWise® FG-50), were heated, […] Increasing levels of glycerine (approximately 5, 10, 20 and 25 parts by weight) could be adsorbed or dissolved in 100 parts by weight of heated and melted free phytosterols. The evidence for adsorption (or solubility) was that a single melted phase of liquid was visible in heated glass test tubes containing these mixtures, whereas when larger amounts of glycerine were added, the glycerine formed a separate clear phase beneath the melted phytosterols. Upon cooling and solidification of the phytosterol samples containing between approximately 5 and 25 parts by weight of glycerine, the resulting solids were dry to the touch with no apparent free glycerine liquid. […]

[2] = cited from earlier work
[3] = Mutual solubility of phytosterols with glycerine or propylene glycol at 150° C.; format: physicochemical
Source text: It was discovered that a substantial amount of glycerine can be combined with phytosterol to form a complex (up to approximately 20% glycerine based on the weight of phytosterol). This was surprising given that glycerine is a low molecular weight hydrophilic substance whereas phytosterols (e.g., beta-sitosterol, campesterol and stigmasterol) are highly hydrophobic substances. […] The question arose, why can 20% glycerine dissolve into melted phytosterols when a small amount of phytosterol will not dissolve into glycerine. […] For example, equal weight percentages of these ingredients dissolve easily in one another.

- saturation level of glycerine relative to phytosterols [1]: ~20 % by weight
- solubility limit (saturation level) of glycerine in melted phytosterols ([1]; phytosterols melted at approximately 135° C.): about 25 g per 100 g phytosterols
Compound: OCC(O)CO [glycerine]

Compound: CCCCCO [n-amyl alcohol]
- solubility limit in water [2]: 2.7 g per 100 g water

- miscibility of propylene glycol and phytosterols [3]: substantially miscible
Compound: CC(O)CO (stereo not shown) [propylene glycol]
